Data set [1] has as its system human tumor cells. Particulars: nude mouse transplanted with human tumor cells; cited from earlier work.
Data set [2] relates to human lung cancer and breast cancer cell lines. The note with it: cited from earlier work.
For data set [3], the system named is human lung cancer tumor xenograft. The note with it: cited from earlier work.
A short description of data set [4]: Stability of polymorphs exposed to the air at room temperature for 12 months, purity by HPLC. The format is physicochemical. Particulars: for Original Purity: before exposure; for Purity (after exposed for 12 months): exposed to the air at room temperature for 12 months. The method, then: The obtained purity results thereof were shown s follows.
The purities were measured by using high performance liquid chromatography under the following conditions.
Chromatographic Column. […] ODS (150*4.6 mm, 5μ)
Phase A: 11.5% (v/v) of acetonitrile aqueous solution containing 0.01 mol/L of lauryl sodium sulfate and 0.0125 mol/L of dipotassium hydrogen phosphate (adjusted to pH 2.5 with phosphoric acid)
Column Temperature: 40° C.;
Detection Wavelength: 278 nm;

For `N#C/N=C(\NCCCCCCOc1ccc(Cl)cc1)Nc1ccncc1` [N-(6-(4-chlorophenoxy)hexyl)-N′-cyano-N″-(4-pyridyl)guanidine], the “antitumor activity in vivo” value in data set [1] is given as “highly potent antitumor activity”. Moreover, the “antiproliferative activity in vitro” value in data set [2] is “high antiproliferative activity”. For the same compound, the “antitumor activity in the nude mice model” value in data set [3] was “potent antitumor activity”.

`N#C/N=C(\NCCCCCCOc1ccc(Cl)cc1)Nc1ccncc1` [Polymorph I, N-(6-(4-chlorophenoxy)hexyl)-N′-cyano-N″-(4-pyridyl)guanidine]: in data set [4], the “Original Purity” value worked out at 98.01% and the “Purity (after exposed for 12 months)” value came out at 97.49%.

`N#C/N=C(\NCCCCCCOc1ccc(Cl)cc1)Nc1ccncc1` [Polymorph II, N-(6-(4-chlorophenoxy)hexyl)-N′-cyano-N″-(4-pyridyl)guanidine]: in data set [4], the “Original Purity” value turned out to be 99.45% and the “Purity (after exposed for 12 months)” value was determined as 99.36%.

For `N#C/N=C(\NCCCCCCOc1ccc(Cl)cc1)Nc1ccncc1` [Polymorph III, N-(6-(4-chlorophenoxy)hexyl)-N′-cyano-N″-(4-pyridyl)guanidine], in data set [4], the “Original Purity” value came to 97.83% and the “Purity (after exposed for 12 months)” value turned out to be 97.56%.

On to `N#C/N=C(\NCCCCCCOc1ccc(Cl)cc1)Nc1ccncc1` [Polymorph IV, N-(6-(4-chlorophenoxy)hexyl)-N′-cyano-N″-(4-pyridyl)guanidine], for which, in data set [4], the “Original Purity” value was 99.59% and the “Purity (after exposed for 12 months)” value turned out to be 99.45%.

For `N#C/N=C(\NCCCCCCOc1ccc(Cl)cc1)Nc1ccncc1` [Polymorph V, N-(6-(4-chlorophenoxy)hexyl)-N′-cyano-N″-(4-pyridyl)guanidine], in data set [4], the “Original Purity” value turned out to be 95.82% and the “Purity (after exposed for 12 months)” value is given as 95.02%.

Consider `N#C/N=C(\NCCCCCCOc1ccc(Cl)cc1)Nc1ccncc1` [Polymorph VI, N-(6-(4-chlorophenoxy)hexyl)-N′-cyano-N″-(4-pyridyl)guanidine], for which, in data set [4], the “Original Purity” value is listed as 99.55% and the “Purity (after exposed for 12 months)” value is given as 99.28%.
